Experimental findings from patent publication US11298367B2, “Prodrugs of substituted triazole derivatives and uses thereof” (Bayer Aktiengesellschaft, priority 2017, dated 2022) are described below.

One assay relates to human platelets. The experiment in a line: Inhibition of vasopressin induced aggregation of human platelets. Format: cell-based. The conditions noted are these: human platelet rich plasma, AVP 100 nM. As to the method:
B-5. Inhibition of Vasopressin Induced Aggregation of Human Platelets for Verification of Prodrug Conversion into Drug
Human platelets endogenously express the V1a receptor. […] Therefore, platelets enriched from human blood may serve as a V1a expressing tissue for pharmacological studies with vasopressin antagonists.
To verify the conversion of prodrugs into the respective drugs, the prodrugs are incubated with and without alkaline phosphatase. Cleavage of the phosphate moiety by alkaline phosphatase converts the prodrug into the drug. As prodrug and underlying respective drug show different IC50 values, the value of the prodrug after alkaline phosphatase treatment resembles the IC50 of the respective drug.
100 μl of test compound at a concentration of 100 μM are incubated for 15 min with 500 units alkaline phosphatase at 37° C. in modified Tyrode buffer (134 mM NaCl, […], 0.34 mM NaH2PO4*H2O, 2.9 mM KCl, 5 mM HEPES, 5 mM Glucose) and stored at 4° C. until further use in the platelet aggregation assay.
Platelet-rich plasma (PRP) is obtained by centrifugation of the blood sample at 140 g for 20 min at room temperature. The resulting pellet is discarded and the PRP further centrifuged (11.000 rpm, 1 min) to produce platelet-poor plasma (PPP). Platelet aggregation is measured turbidimetrically using an aggregometer (APACT 4). The reaction is followed by monitoring changes in light transmission on 178 μL PRP aliquots, under continuous stirring at 37° C., against PPP control. Various concentrations of vasopressin antagonists (in 2 μL) are added to PRP 5 min before the addition of 20 μL AVP (final concentration 100 nM). The inhibitory effects of the compounds are determined by measuring the maximal amplitude of the aggregation curve compared with the control response. IC50 values are calculated on the basis of a concentration-response inhibition curve by an iterative nonlinear regression program. All values are expressed as mean values (Table 3A).

The target in the next assay is T1, vasopressin V2 receptor (Rattus norvegicus, UniProt Q00788).
T1 construct: from tissue; host or cells: whole animal (conscious Wistar rats; renal V2 receptors)
T1 sequence (Q00788 whole entry): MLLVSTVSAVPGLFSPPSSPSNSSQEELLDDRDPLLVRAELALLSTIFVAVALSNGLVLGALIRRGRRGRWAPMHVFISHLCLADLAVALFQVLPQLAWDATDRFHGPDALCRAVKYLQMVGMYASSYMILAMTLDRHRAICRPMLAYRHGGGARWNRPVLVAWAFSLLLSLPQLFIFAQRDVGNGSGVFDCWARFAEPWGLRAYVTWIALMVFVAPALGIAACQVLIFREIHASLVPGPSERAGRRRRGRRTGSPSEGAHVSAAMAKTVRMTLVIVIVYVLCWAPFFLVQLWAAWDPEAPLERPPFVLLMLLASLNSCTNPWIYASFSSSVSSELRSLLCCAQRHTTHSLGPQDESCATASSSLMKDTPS
The experiment in a line: Diuresis investigations in conscious rats kept in metabolism cages. The settings on record: Wistar rats, i.v., solvent control = 100%. It is filed as in vivo. As for the experimental part:
B-8. In Vivo Assay for Detecting Vasopressin V2 Receptor-Meidated Effects: Diuresis Investigations in Conscious Rats Kept in Metabolism Cages
Wistar rats (400-500 g body weight) are kept with free access to feed (Altromin) and drinking water. During the experiment, the animals are kept with free access to drinking water for 7 hours individually in metabolism cages suitable for rats of this weight class (Tecniplast Deutschland GmbH, D-82383 Hohenpeißenberg). At the beginning of the experiment, the animals are administered the test substance in a volume of 1 ml/kg body weight of a suitable solvent (2-Hydroxylpropyl-beta-cyclodextrin) by intravenous application. Control animals only receive solvent. Controls and substance tests are carried out in parallel on the same day. Control groups and substance-dose groups each consist of 6 to 8 animals. During the experiment, the urine excreted by the animals is collected continuously in a receiver at the base of the cage. The volume of urine is determined separately for each animal. Before the beginning of the experiment, the body weight of the individual animals is determined.
Following intravenous administration, in comparison with the solvent control applications, a vasopressin V2 receptor blocking compound would bring about an increased excretion of urine, which is based essentially on an increased excretion of water (aquaresis).

Assay [1] concerns vasopressin (AVP) mediated changes of systemic and renal hemodynamics. The experiment in a line: Acute effects on vasopressin-mediated changes of systemic hemodynamics, renal blood flow and oxygenation in anesthetized rats. It is filed as in vivo, rat. The conditions noted are these: AVP 50 ng/kg/min + compound 30 μg/kg bolus, mean ± SD, n = 8. As for the experimental part: B-11. Acute Effects on Vasopressin-Mediated Changes of Systemic Hemodynamics, Renal Blood Flow and Oxygenation in Anesthetized Rats
Experiments are performed on male Sprague Dawley rats (Charles River, Deutschland; 350-450 g body weight). In preparation for surgical procedures rats are anesthetized with isoflurane and placed on a heated table to maintain core body temperature at 37° C., assessed using a rectal thermometer inserted. Inhalation anesthesia with isoflurane is applied using a calibrated vaporizer to induce and maintain anesthesia with 5 vol. % and 2 vol. % isoflurane, respectively. A PE50 cannula is placed in the right arteria femoralis for monitoring mean arterial pressure (MAP). Another PE50 catheter is inserted into the vena femoralis for intravenous infusion. The left kidney is exposed by a flank incision and separated from the perirenal attachments. The kidney capsule remains intact. During surgery and the subsequent equilibration and control periods, the rats receive an intravenous infusion of saline (0.9% NaCl) at rate 100 μL/min. Renal measurements of renal blood flow (RBF) are recorded using a laser Doppler blood flow probe (Oxford Optronix, UK) that is attached and stabilized to the surface of the kidney. The probe is inserted into the renal cortex to a depth of 2 mm and another into the renal medulla at 4 mm. The renal blood flow, oxygen and temperature are measured by combined sensor probe (Oxford Optronix, UK). MAP, heart rate (HR), RBF, temperature and oxygen are continuously recorded. After surgery and equilibration, baseline measurements are determined for 20 minutes. The rats are then intravenously infused with vasopressin atrate 50 ng/kg/min in 100 μL/kg for 20 minutes. In the third period, the effect of combined infusion of vasopressin and adual vasopressin receptor antagonist (Example 82 of WO 2016/071212) or a selective V1a antagonist (Example 1) or vehicle that is applied as a bolus in different concentration is determined.

The mark [2] stands for this setting: with alkaline phosphatase, read-out: IC50 with AP.
The mark [3] stands for this setting: without alkaline phosphatase, read-out: IC50 without AP.

The structures appear in SMILES notation. Read-outs that look alike come from different tables or passages of the source.

In the case of `NC(=O)c1nc(Cn2nc(-c3ccc(Cl)cc3)n(C[C@H](O)C(F)(F)F)c2=O)nn1-c1ncccc1C(F)(F)F` [Example 4A, 3-({3-(4-Chlorophenyl)-5-oxo-4-[(2S)-3,3,3-trifluoro-2-hydroxypropyl]-4,5-dihydro-1H-1,2,4-triazol-1-yl}methyl)-1-[3-(trifluoromethyl)pyridin-2-yl]-1H-1,2,4-triazole-5-carboxamide], the IC50 amounted to 0.0102 µM in the assay on human platelets (setting [2]) and 0.0211 µM in the assay with human platelets (setting [3]). In addition, the values for the Urinary volume at vasopressin V2 receptor (dosage 0.3 mg/kg), on vasopressin V2 receptor (dosage 1.0 mg/kg) and on vasopressin V2 receptor (dosage 3.0 mg/kg) were 95 % vs. control, 154 % vs. control and 134 % vs. control, respectively. Besides, the “HR (heart rate)” value in assay [1] is 270.50 ± 2.89 BPM. Moreover, in assay [1], the “MAP (mean arterial blood pressure)” value is reported as 114.80 ± 7.42 mmHg. The “RBF (renal blood flow)” value in assay [1] amounted to 878.10 ± 96.92 U. The “pO2 (partial pressure of renal oxygen)” value in assay [1] was 15.86 ± 4.01 mmHg.
As for `NC(=O)c1nc(Cn2nc(-c3ccc(Cl)cc3)n(C[C@H](OP(=O)(O)O)C(F)(F)F)c2=O)nn1-c1ncccc1C(F)(F)F` [Example 1, (2S)-3-[1-({5-Carbamoyl-1-[3-(trifluoromethyl)pyridin-2-yl]-1H-1,2,4-triazol-3-yl}methyl)-3-(4-chlorophenyl)-5-oxo-1,5-dihydro-4H-1,2,4-triazol-4-yl]-1,1,1-trifluoropropan-2-yl Dihydrogen Phosphate], the IC50 with human platelets (setting [2]) worked out at 0.0127 µM. Further, the IC50 in the assay on human platelets (setting [3]) is 0.145 µM. This compound also registered a Urinary volume on vasopressin V2 receptor (dosage 0.3 mg/kg) of 127 % vs. control. The Urinary volume at vasopressin V2 receptor (dosage 1.0 mg/kg) was 117 % vs. control. Further, the Urinary volume at vasopressin V2 receptor (dosage 3.0 mg/kg) is given as 108 % vs. control. Moreover, in assay [1], the “HR (heart rate)” value came to 276.20 ± 4.46 BPM, the “MAP (mean arterial blood pressure)” value was 103.50 ± 4.97 mmHg, the “RBF (renal blood flow)” value is reported as 877.00 ± 43.01 U and the “pO2 (partial pressure of renal oxygen)” value was 14.32 ± 1.13 mmHg.
